# Where “and” joins values, the source holds several entries; their conditions need not be identical. Equal values may be shown once. Read-outs that look alike come from different tables or passages of the source.
# How the values were obtained:
# [1] = system: p53 signaling (p53RE-bla HCT-116 cells)
# [2] = system: p53RE-bla HCT-116 cells; assay: cells; conditions: Homo sapiens
# [3] = system: p53 signaling (p53RE-bla HCT-116 cells); remark: listed apart in the source
# [4] = system: p53 signaling (p53RE-bla HCT-116 cells); assay: cells; conditions: Homo sapiens
# [5] = system: p53RE-bla HCT-116 cells
# [6] = system: p53 signaling (p53RE-bla HCT-116 cells); assay: cells; format: cell-based; conditions: for Emax / EC50: Homo sapiens
# [7] = rat
# [8] = system: p53 signaling (p53RE-bla HCT-116 cells); assay: cells; format: cell-based; conditions: Homo sapiens; for EC50: HCT-116
# [9] = system: p53 signaling (p53RE-bla HCT-116 cells); assay: cells; format: cell-based
# [10] = HCT-116, read-out: p53 activation efficacy
# [11] = HCT-116, read-out: Viability EC50, cherry pick confirmation
# [12] = HCT-116, read-out: Viability EC50, primary screening
# [13] = HCT-116, read-out: p53 activation EC50, primary screening
# [14] = HCT-116, read-out: p53 activation efficacy, primary screening
# [15] = HCT-116, read-out: p53 activation EC50, cherry pick confirmation
# [16] = HCT-116, read-out: p53 activation efficacy, cherry pick confirmation
smiles,measurement,setting,value
Nc1nc(N)c2nc(CNc3ccc(C(=O)N[C@@H](CCC(=O)O)C(=O)O)cc3)cnc2n1 [Aminopterin],p53 activation EC50,[1],inactive
same,p53 activation efficacy,[1],inactive
same,EC50,"[2]; HCT-116, read-out: Viability EC50",0.191 µM
same,p53 activation efficacy,[3],37.0427
same,Emax,[4]; [10],48.5%
same,Viability EC50,[5],inactive
same,p53 activation efficacy,[6],45.6293
same,Emax,[6]; [10],39.2%
CCOP(=S)(OCC)Oc1cc(C)nc(N(CC)CC)n1 [Pirimiphos-ethyl],"p53 activation EC50, HLM",[1],inactive
same,EC50,"[1]; read-out: p53 activation EC50, HLM",3.88 µM
same,EC50,[3],2.07 µM
same,EC50,"[3]; read-out: p53 activation EC50, RLM",1.91 µM and 3.44 µM
same,"Viability EC50, HLM",[5],inactive
same,"Viability EC50, No MS",[5],inactive
same,"Viability EC50, RLM",[5],inactive
same,"Viability Efficacy, HLM",[5],inactive
same,"Viability Efficacy, No MS",[5],inactive
same,"Viability Efficacy, RLM",[5],inactive
same,Depletion after 16 h of incubation with cells,[7],95.16 ± 0.46%
same,"p53 activation EC50, No MS",[6],inactive
same,"p53 activation Efficacy, No MS",[6],inactive
CC1CCC(C(C)C)C(OC(=O)c2ccccc2N)C1 (stereo not drawn) [Menthyl anthranilate],"p53 activation EC50, cherry pick confirmation",[1],inactive
same,"p53 activation EC50, primary screening",[1],inactive
same,"p53 activation efficacy, cherry pick confirmation",[1],inactive
same,"p53 activation efficacy, primary screening",[1],inactive
same,EC50,[2]; [11],33.8 µM
same,EC50,[2]; [12],36 µM
same,"p53 activation EC50, cherry pick confirmation",[3],inactive
same,"p53 activation efficacy, cherry pick confirmation",[3],inactive
same,EC50,[4]; [13],34.8 µM
same,Emax,[4]; [14],70.8%
same,"Viability EC50, cherry pick confirmation",[5],inactive
same,"Viability EC50, primary screening",[5],inactive
same,EC50,[6]; [15],0.837 µM
same,EC50,[6]; [13],48.8 µM
same,Emax,[6]; [16],40.4%
same,Emax,[6]; [14],62.5%
Cc1cccc2c1cc1ccc3cccc4ccc2c1c34 [7-Methylbenzo(a)pyrene],EC50,[8],27.5 µM
same,EC50,[4]; HCT-116,34.3 µM
same,"Viability EC50, HLM",[5],inactive
same,"Viability EC50, No MS",[5],inactive
same,"Viability EC50, RLM",[5],inactive
same,"Viability Efficacy, HLM",[5],inactive
same,"Viability Efficacy, No MS",[5],inactive
same,"Viability Efficacy, RLM",[5],inactive
same,EC50,"[9]; Homo sapiens, HCT-116, 0.5 h",32.9 µM
same,Depletion after 16 h of incubation with cells,[7],52.01 ± 27.41%
same,"p53 activation Efficacy, No MS",[6],64.7403%
same,Emax,"[6]; HCT-116, read-out: p53 activation Efficacy, No MS",59.2%
CCOc1ccc2c(c1)C(C)=CC(C)(C)N2 [Ethoxyquin],"p53 activation EC50, cherry pick confirmation",[1],inactive
same,"p53 activation EC50, primary screening",[1],inactive
same,"p53 activation efficacy, cherry pick confirmation",[1],inactive
same,"p53 activation efficacy, primary screening",[1],inactive
same,EC50,[2]; [11],51.1 µM
same,EC50,[2]; [12],54.2 µM
same,"p53 activation EC50, cherry pick confirmation",[3],inactive
same,"p53 activation efficacy, cherry pick confirmation",[3],inactive
same,EC50,[4]; [13],39.1 µM
same,Emax,[4]; [14],50.4%
same,"Viability EC50, cherry pick confirmation",[5],inactive
same,"Viability EC50, primary screening",[5],inactive
same,EC50,"[5]; read-out: Viability EC50, cherry pick confirmation",48.2 µM
same,"p53 activation EC50, cherry pick confirmation",[6],inactive
same,"p53 activation EC50, primary screening",[6],inactive
same,"p53 activation efficacy, cherry pick confirmation",[6],inactive
same,"p53 activation efficacy, primary screening",[6],inactive
c1ccc2c(c1)[nH]c1cnccc12 [Norharman],"p53 activation EC50, cherry pick confirmation",[1],inactive
same,"p53 activation EC50, primary screening",[1],inactive
same,"p53 activation efficacy, cherry pick confirmation",[1],inactive
same,"p53 activation efficacy, primary screening",[1],inactive
same,EC50,[8],20 µM
same,Emax,"[8]; HCT-116, read-out: efficacy",76.4%
same,EC50,[4]; HCT-116,28.1 µM
same,Emax,"[4]; HCT-116, read-out: efficacy",73.8%
same,EC50,[4]; [15],29.6 µM
same,EC50,[4]; [13],32.6 µM
same,Emax,[4]; [16],71%
same,"Viability EC50, cherry pick confirmation",[5],inactive
same,"Viability EC50, primary screening",[5],inactive
same,"Viability efficacy, cherry pick confirmation",[5],inactive
same,"Viability efficacy, primary screening",[5],inactive
same,EC50,[9],Inactive
same,Depletion after 16 h of incubation with cells,[7],85.03 ± 0.42%
same,"p53 activation EC50, cherry pick confirmation",[6],inactive
same,"p53 activation efficacy, cherry pick confirmation",[6],inactive
same,EC50,[6]; [13],41.4 µM
COc1cc(/C=C/C(=O)CC(=O)/C=C/c2ccc(O)c(OC)c2)ccc1O [Curcumin],"p53 activation EC50, cherry pick confirmation",[1],inactive
same,"p53 activation EC50, primary screening",[1],inactive
same,"p53 activation efficacy, cherry pick confirmation",[1],inactive
same,"p53 activation efficacy, primary screening",[1],inactive
same,EC50,[2]; [11],16.3 µM
same,EC50,[2]; [12],31.7 µM
same,"p53 activation EC50, cherry pick confirmation",[3],inactive
same,"p53 activation EC50, primary screening",[3],inactive
same,"p53 activation efficacy, cherry pick confirmation",[3],inactive
same,"p53 activation efficacy, primary screening",[3],inactive
same,"Viability EC50, cherry pick confirmation",[5],inactive
same,EC50,"[5]; read-out: Viability EC50, primary screening",38 µM and 46.9 µM
same,"p53 activation EC50, cherry pick confirmation",[6],inactive
same,"p53 activation efficacy, cherry pick confirmation",[6],inactive
same,EC50,[6]; [13],15.4 µM
same,Emax,[6]; [14],65.1%
